In PubChem BioAssay (NCI):
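Method: 48-hour compound exposure of cells in 96-well plates, five concentrations, linear interpolation of endpoints. Here, GI50 denotes the concentration required for 50% inhibition of growth. TGI marks complete inhibition of growth.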

How the values were obtained:
Test in all cases: NCI tumour cell line growth inhibition, 48 h
[1] = tested on: A549 NSCLC
[2] = tested on: BT-549 breast
[3] = tested on: CAKI-1 renal
[4] = tested on: CCRF-CEM leukemia
[5] = tested on: COLO 205 colon
[6] = tested on: HL-60(TB) leukemia
[7] = tested on: K-562 leukemia
[8] = tested on: MDA-MB-231 breast
[9] = tested on: NCI-H23 lung
[10] = tested on: OVCAR-3 ovarian

Compound	GI50 [1] [µM]	TGI [1] [µM]	GI50 [2] [nM]	TGI [2] [µM]	GI50 [3] [nM]	TGI [3] [µM]	GI50 [4] [nM]	TGI [4] [µM]	GI50 [5] [µM]	TGI [5] [µM]	GI50 [6] [nM]	TGI [6] [µM]	GI50 [7] [nM]	TGI [7] [µM]	GI50 [8] [µM]	TGI [8] [µM]	GI50 [9] [nM]	TGI [9] [µM]	GI50 [10] [nM]	TGI [10] [µM]
COc1ccc(/C=C(/c2ccccc2)[N+](=O)[O-])cc1	2.13	5.12	1420	2.88	1550	3.28	415	3.32	1.79	4.07	2350	6.87	393	> 100	1.59	3.09	1740	3.63	1360	2.69
CC1C(=O)OC2CC[N+]3([O-])CC=C(COC(=O)C(C)(O)C1(C)O)C23 (stereo not drawn)		> 100		> 100		> 100		> 100		> 100		> 100		> 100		> 100		> 100		> 100
COc1ccc2c3c(Nc4ccc(/C(C)=N/O)cc4)[nH]c4ccccc4c-3c(N=O)c2c1	1.45	6.08	3980	23.1	2650	6.01	1090	2.92	19.5	34.9	1260	3.06	665	2.8	4.8	24.3	4590	18.2		
Nc1ccccc1SC1CC(=O)N(c2ccc(Cl)c(Cl)c2)C1=O (stereo not drawn)	19.5	> 100	62200	> 100	21700	> 100	40600	> 100	53.1	> 100	> 100000	> 100	15000	> 100	17.9	> 100	23800	> 100	11600	44
Cc1ccc(S(=O)(=O)NC(=O)NC2=NC(C)(C)N(c3ccc(Cl)c(Cl)c3)C(N)=N2)cc1		> 100		> 100		> 100		> 100		> 100		> 100		> 100		> 100		> 100		> 100
Cn1c(=O)c2c(ncn2CC(=O)Nc2ccc(-c3ccccc3)nn2)n(C)c1=O	> 100	> 100	> 100000	> 100	> 100000	> 100	> 100000	> 100	> 100	> 100	49900	> 100	> 100000	> 100	23.1	> 100	> 100000	> 100	> 100000	> 100
CC/C=C/C/C=C/C/C=C/C/C=C/C/C=C/C/C=C/CCC(=O)Nc1ccn([C@@H]2O[C@H](CO)[C@@H](O)C2(F)F)c(=O)n1	0.0369	20.4	681	19.8	34.1	14.8	53.7	15.1	0.187	19.1	59	9.24	160	33.4	7.65	28.9	19	9.3	4790	25.5
O=C(NCc1ccc(S(=O)(=O)c2cc(F)cc(F)c2)cc1)c1ccc2nccn2c1	9.59	> 100	296	12.1	> 43300	> 100		> 100		> 100	> 40200	> 100	10.3	> 100	20	> 100	> 48700	> 100	1320	> 100
CCN(CC)CCNc1ccc2ncn3c4cc(OC)c(OC)c(=O)c4c(O)c1c23		35.1		30.5		28.9		53.1		17.4		26.3		50.7		20.7		26.3		31.7
O=C(OCc1ccc2c(Cl)cc(Cl)c(O)c2n1)N1CCN(C(=O)c2cc3cc(F)ccc3[nH]2)CC1	7.03	> 100	1170	> 24	905	> 100	876	> 100	38.7	> 100	1060	3.53	825	> 100	1.07	> 55.6	2250	> 100	501	3.7
O/C(=C\c1nc2ccccc2nc1NC12CC3CC(CC(C3)C1)C2)c1ccc(Br)cc1		> 10		> 10		> 10		> 10		> 10		> 10		> 10		> 10		> 10		> 10
NC(=S)N/N=C/c1cc(-c2cccc(N)c2)ccn1	3.11	> 51.3	3520	> 100	972	10.3	674	> 36.1	3.41	> 100	281		541	> 100	3.6	> 100	1910	> 100	1670	23.2
O=C(N/N=C/c1c(Cl)cccc1Cl)c1ccc(C(F)(F)F)nc1Nc1cccc(C(F)(F)F)c1	1.54	> 36.1	2600	9	1030	13.8	340	8.98	0.67	2.59	552		491		1.51	11.1	1420	> 21.8	284	6.47
